Measurements taken from patent US9523100B2, “Pesticidal compositions and related methods” (DOW AGROSCIENCES LLC, priority 2013, dated 2016).

What was measured:
[1] = test system: Green Peach Aphid (GPA) (Myzus persicae) (MYZUPE); assay: Bioassay for Green Peach Aphid (GPA), foliar spray on cabbage seedlings; assay type: in vivo; details: 72 h, 200 ppm foliar spray on cabbage seedlings, graded after three days, Abbott corrected % control, read-out: GPA 200 ppm, % Control (or Mortality) rating
Text: Bioassay for Green Peach Aphid (GPA) (Myzus persicae) (MYZUPE)
The green peach aphid (Myzus persicae) is the most significant aphid pest of peach trees, causing decreased growth, shriveling of the leaves, and the death of various tissues. It is also hazardous because it acts as a vector for the transport of plant viruses, such as potato virus Y and potato leafroll virus to members of the nightshade/potato family Solanaceae, and various mosaic viruses to many other food crops. GPA attacks such plants as broccoli, burdock, cabbage, carrot, cauliflower, daikon, eggplant, green beans, lettuce, macadamia, papaya, peppers, sweet potatoes, tomatoes, watercress, and zucchini, among other plants GPA also attacks many ornamental crops such as carnation, chrysanthemum, flowering white cabbage, poinsettia, and roses. GPA has developed resistance to many pesticides.
Cabbage seedlings grown in 3-inch pots, with 2-3 small (3-5 cm) true leaves, were used as test substrate. The seedlings were infested with 20-50 GPA (wingless adult and nymph stages) one day prior to chemical application. Four pots with individual seedlings were used for each treatment. Test compounds (2 mg) were dissolved in 2 mL of acetone/methanol (1:1) solvent, forming stock solutions of 1000 ppm test compound. The stock solutions were diluted 5× with 0.025% Tween 20 in water to obtain the solution at 200 ppm test compound. A hand-held aspirator-type sprayer was used for spraying a solution to both sides of […] leaves until runoff. Reference plants (solvent check) were sprayed with the diluent only containing 20% by volume of acetone/methanol (1:1) solvent. Treated plants were held in a holding room for three days at approximately 25° C. and ambient relative humidity (RH) prior to grading. Evaluation was conducted by counting the number of live aphids per plant under a microscope. Percent control was measured by using Abbott's correction formula (W. S. Abbott, “A Method of Computing the Effectiveness of an Insecticide” J. Econ. Entomol. 18 (1925), pp. 265-267) as follows. Corrected % Control=100*(X−Y)/X
X=No. of live aphids on solvent check plants and
Y=No. of live aphids on treated plants
Biological Data for Green Peach Aphid (GPA) (MYZUPE) and Sweetpotato Whitefly-Crawler (WF) (BEMITA)” (see table section).
(§1) The mortality efficiency of the pesticidal compounds against GPA and WF insects was determined after treatment.

[2] = test system: Sweetpotato Whitefly-Crawler (WF) (Bemisia tabaci) (BEMITA); assay: Insecticidal test for Sweetpotato Whitefly-Crawler (WF) in foliar spray assay on cotton plants; assay type: in vivo; details: 216 h, 200 ppm foliar spray on cotton plants, graded after 9 days, Abbott corrected % control, read-out: WF 200 ppm, % Control (or Mortality) rating
Text: Insecticidal Test for Sweetpotato Whitefly-Crawler (WF) (Bemisia tabaci) (BEMITA) in Foliar Spray Assay
The sweetpotato whitefly (Bemisia tabaci) has been reported as a serious pest of cultivated crops world-wide. It has an extremely wide host range attacking more than 500 species of plants from 63 plant families. Weeds often serve as alternate hosts of crop pests. Direct feeding damage is caused by the piercing and sucking sap from the foliage of plants. This feeding causes weakening and early wilting of the plant and reduces the plant growth rate and yield Indirect damage results by the accumulation of honeydew produced by the whiteflies. Honeydew serves as a substrate for the growth of black sooty mold on leaves and fruit reducing photosynthesis and lessens the market value of the plant or yield. […] The sweetpotato whitefly is considered the most common and important whitefly vector of plant viruses worldwide.
Cotton plants (Gossypium hirsutum) grown in 3-inch pots, with 1 small (4-5 cm) true leaves, were used as test substrate. The plants were infested with 200-400 whitefly eggs 4-5 days prior to chemical application. Four pots with individual plants were used for each treatment. Test compounds (2 mg) were dissolved in 1 mL of acetone solvent, forming stock solutions of 2000 ppm test compound. The stock solutions were diluted 10× with 0.025% Tween 20 in water (diluents) to obtain the solution at 200 ppm test compound. A hand-held aspirator-type sprayer was used for spraying a solution to both sides of cotton leaves until runoff. Reference plants (solvent check) were sprayed with the diluent only containing 10% by volume of acetone solvent. Treated plants were held in a holding room for 9 days at approximately 25° C. and ambient relative humidity (RH) prior to grading. Evaluation was conducted by counting the number of live 3-4 nymph stage per plant under a microscope. Percent control was measured by using Abbott's correction formula (W. S. Abbott, “A Method of Computing the Effectiveness of an Insecticide” J. Econ. Entomol. 18 (1925), pp. 265-267) as follows.
Biological Data for Green Peach Aphid (GPA) (MYZUPE) and Sweetpotato Whitefly-Crawler (WF) (BEMITA)” (see table section). Corrected % Control=100*(X−Y)/X
X=No. of live nymphs on solvent check plants and
Y=No. of live nymphs on treated plants
as §1

Row | Structure (SMILES) | mortality at 200 ppm [1] [%] | mortality at 200 ppm [2] [%]
1 | CCN(C(=O)CC/C(=N/OCCCC(F)(F)F)c1cccs1)c1cn(-c2cccnc2)nc1Cl [FA27, (Z)-N-(3-Chloro-1-(pyridin-3-yl)-1H-pyrazol-4-yl)-N-ethyl-4-(thiophen-2-yl)-4-((4,4,4-trifluorobutoxy)imino)butanamide] | 0 to 80 | 0 to 80
2 | CN(C(=O)[C@H]1C=C[C@@H](NC(=O)OC(C)(C)C)C1)c1cn(-c2cccnc2)nc1Cl [Compound F116, tert-Butyl ((1S,4R)-4-((3-chloro-1-(pyridin-3-yl)-1H-pyrazol-4-yl)(methyl)carbamoyl)cyclopent-2-en-1-yl)carbamate] | 0 to 80 | 80 to 100
3 | CCN(C(=O)CCCC1CN(C)C1=O)c1cn(-c2cccnc2)nc1Cl (centres unmarked) [Compound F53, N-(3-Chloro-1-(pyridin-3-yl)-1H-pyrazol-4-yl)-N-ethyl-4-(1-methyl-2-oxoazetidin-3-yl)butanamide] | 80 to 100 | 80 to 100
4 | CCN1CC(CCC(=O)N(CC)c2cn(-c3cccnc3)nc2Cl)C1=O (centres unmarked) [Compound F103, N-(3-Chloro-1-(pyridin-3-yl)-1H-pyrazol-4-yl)-N-ethyl-3-(1-ethyl-2-oxoazetidin-3-yl)propanamide] | 80 to 100 | 80 to 100
5 | CCN(C(=O)C1CCN(C(=O)CCC#N)C1)c1cn(-c2cccnc2)nc1Cl (centres unmarked) [FA11, N-(3-Chloro-1-(pyridin-3-yl)-1H-pyrazol-4-yl)-1-(3-cyanopropanoyl)-N-ethylpyrrolidine-3-carboxamide] | 80 to 100 | 80 to 100
6 | CCN(C(=O)C(C)OC(=O)CC(F)(F)F)c1cn(-c2cccnc2)nc1Cl (centres unmarked) [FA74, 1-((3-Chloro-1-(pyridin-3-yl)-1H-pyrazol-4-yl)(ethyl)amino)-1-oxopropan-2-yl 3,3,3-trifluoropropanoate] | 80 to 100 | 0 to 80
7 | CCN(C(=O)CCCC(C)=O)c1cn(-c2cncc(F)c2)nc1C [FA70, N-Ethyl-N-(1-(5-fluoropyridin-3-yl)-3-methyl-1H-pyrazol-4-yl)-5-oxohexanamide] | 0 to 80 | 80 to 100
8 | CN(C(=O)CN1CCCC1=O)c1cn(-c2cccnc2)nc1Cl [Compound F6, N-(3-Chloro-1-(pyridin-3-yl)-1H-pyrazol-4-yl)-N-methyl-2-(2-oxopyrrolidin-1-yl)acetamide] | 80 to 100 | 80 to 100
9 | CCN(C(=O)CCC1CN(CC2CC2(F)F)C1=O)c1cn(-c2cccnc2)nc1Cl (centres unmarked) [Compound F74, N-(3-Chloro-1-(pyridin-3-yl)-1H-pyrazol-4-yl)-3-1(1-((2,2-difluorocyclopropyl)methyl)-2-oxoazetidin-3-yl)-N-ethylpropanamide] | 80 to 100 | 80 to 100
10 | CCN(C(=O)C1CCCCN1C(C)=O)c1cn(-c2cccnc2)nc1Cl (centres unmarked) [FA32, 1-Acetyl-N-(3-chloro-1-(pyridin-3-yl)-1H-pyrazol-4-yl)-N-ethylpiperidine-2-carboxamide] | 0 to 80 | 0 to 80
11 | CCN(C(=O)CCCN1CCCC1=O)c1cn(-c2cccnc2)nc1Cl [FA33, N-(3-Chloro-1-(pyridin-3-yl)-1H-pyrazol-4-yl)-N-ethyl-4-(2-oxopyrrolidin-1-yl)butanamide] | 80 to 100 | 80 to 100
12 | CCN(C(=O)C1CCN(C(=O)OC(C)(C)C)C1)c1cn(-c2cccnc2)nc1Cl (centres unmarked) [Compound F11] | 0 to 80 | 80 to 100
13 | CCN(C(=O)CCNC(=O)C1CC1(F)F)c1cn(-c2cccnc2)nc1Cl (centres unmarked) [Compound F56, N-(3-((3-Chloro-1-(pyridin-3-yl)-1H-pyrazol-4-yl)(ethyl)amino)-3-oxopropyl)-2,2-difluorocyclopropanecarboxamide] | 80 to 100 | 80 to 100
